Measured values: article PMC6272942, “Lead Discovery of Type II BRAF V600E Inhibitors Targeting the Structurally Validated DFG-Out Conformation Based upon Selected Fragments” (Molecules, 2016)

Biological target: BRAF V600E (Homo sapiens, UniProt P15056, V600E)
Test: LanthaScreen biochemical kinase assay

BRAF V600E, sequence (P15056 whole entry V600E): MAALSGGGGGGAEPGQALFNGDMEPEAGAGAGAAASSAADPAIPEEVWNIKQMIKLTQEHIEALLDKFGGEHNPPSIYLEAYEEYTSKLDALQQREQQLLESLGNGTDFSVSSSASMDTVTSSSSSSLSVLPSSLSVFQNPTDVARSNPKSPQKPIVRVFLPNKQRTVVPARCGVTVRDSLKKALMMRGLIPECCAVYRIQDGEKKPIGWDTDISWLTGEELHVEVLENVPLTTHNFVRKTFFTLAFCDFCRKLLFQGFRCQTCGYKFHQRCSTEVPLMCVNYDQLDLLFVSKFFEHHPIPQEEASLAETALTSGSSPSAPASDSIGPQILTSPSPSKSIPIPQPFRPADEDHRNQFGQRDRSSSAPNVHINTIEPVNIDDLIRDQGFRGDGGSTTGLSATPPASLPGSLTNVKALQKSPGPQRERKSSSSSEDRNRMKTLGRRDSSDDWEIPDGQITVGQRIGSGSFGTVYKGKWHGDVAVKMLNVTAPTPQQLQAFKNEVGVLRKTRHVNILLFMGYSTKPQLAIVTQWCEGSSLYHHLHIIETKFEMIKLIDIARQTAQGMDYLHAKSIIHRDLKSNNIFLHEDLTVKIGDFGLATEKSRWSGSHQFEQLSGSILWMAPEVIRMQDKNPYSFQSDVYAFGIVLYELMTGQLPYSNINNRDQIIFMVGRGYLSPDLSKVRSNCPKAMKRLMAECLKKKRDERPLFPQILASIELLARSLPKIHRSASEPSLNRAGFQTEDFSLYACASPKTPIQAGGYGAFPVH

Work on `Cc1nc(Nc2ccc(NC(=O)Nc3ccc(F)c(Cl)c3)cc2)cc(N2CCOCC2)n1` [SI-008, 1-(3-Chloro-4-fluorophenyl)-3-(4-(2-methyl-6-morpholinopyrimidin-4-ylamino)phenyl)urea] yielded an IC50 of 685 nM.
Work on `Cc1nc(Nc2cccc(NC(=O)Nc3cc(F)ccc3C)c2)cc(N2CCOCC2)n1` [SI-046, 1-(5-Fluoro-2-methylphenyl)-3-(3-(2-methyl-6-morpholinopyrimidin-4-ylamino)phenyl)urea] yielded an IC50 of 298 nM.
